Test: Effective concentration required for production of cGMP in Chinese hamster ovary cells expressing natriuretic peptide receptor A (NPR-A)
Assay type: functional, cell-based

CC[C@H](C)[C@@H]1NC(=O)[C@@H](CCCN=C(N)N)NC(=O)[C@H](CC(=O)O)NC(=O)[C@@H](CCSC)NC(=O)[C@H](CCCN=C(N)N)NC(=O)CNC(=O)CNC(=O)[C@@H](Cc2ccccc2)NC(=O)[C@H](Cc2c[nH]cn2)NC(=O)[C@@H](NC(=O)[C@@H](N)CCSC)CSSC[C@H](C(=O)N[C@@H](Cc2ccc(O)cc2)C(=O)N[C@@H](CCCN=C(N)N)C(N)=O)NC(=O)[C@@H](CO)NC1=O [MiniANP] gave an EC50 of 3.1 nM.

— ChEMBL document CHEMBL1148388, “Restriction of a peptide turn conformation and conformational analysis of guanidino group using arginine-proline fused amino acids: application to mini atrial natriuretic peptide on binding to the receptor” (J Med Chem, 2004)
